Consider three compounds from patent publication US20190000760A1, “NANOPARTICLE-AQUEOUS DISPERSION LIQUID OF GLYCOSPHINGOLIPID” (REGiMMUNE Corporation, priority 2015, published 2019).

The data set is described as follows: Average particle size and particle distribution by dynamic light scattering (Zetasizer Nano ZS). Format: physicochemical. Particulars: for average particle size / particle distribution: DMSO as organic solvent. As to the method:
(§1) KRN7000 was weighed in a test tube, 99.5% ethanol was added to adjust the concentration to 4 mg/mL, and the mixture was then heated to 76° C. to completely dissolve the KRN7000, so that a glycosphingolipid solution was obtained (the same applies for RCAI-56 or RCAI-61). On the other hand, inulin was weighed in a test tube, sterilized distilled water was added to adjust the concentration to 35 mg/mL, and the inulin was then completely dissolved to obtain an inulin solution. 50 μL of the glycosphingolipid solution was transferred to an additionally provided test tube, 950 μL of the inulin solution was added thereto, and quickly mixed by vortex, the mixture was left standing overnight at room temperature, and an equal amount of pure water was then added to reduce the concentration to ½. For the obtained dispersion solution, the average particle size and particle distribution were measured by a dynamic light scattering method (Zetasizer Nano ZS, Malvern). […] The final components of the glycosphingolipid hydrophilic protective colloidal solution obtained by this method, and the concentrations thereof are as follows: 0.1 mg/mL of glycosphingolipid, 17.5 mg/mL of inulin and 2.5% of ethanol.
as §1, with “pullulan” for “inulin”, “10” for “35”, “a pullulan” for “an inulin”, “glycosphingolipid” for “glycosphingolipid hydrophilic”, “5.0” for “17.5”
as §1, with “HPMC” for “inulin”, “1” for “35”, “a HPMC” for “an inulin”, “glycosphingolipid” for “glycosphingolipid hydrophilic”, “0.5” for “17.5”
Preparation of a hydrophobic colloidal solution of a glycosphingolipid using DMSO as an organic solvent was examined. KRN7000 was weighed in a test tube, DMSO was added to adjust the concentration to 2 mg/mL, and the mixture was heated to 85° C. to completely dissolve the KRN7000, so that a glycosphingolipid solution was obtained. […]

Where [1] appears, read: inulin, 0.4 mg/mL glycosphingolipid, 28 mg/mL inulin, 20% DMSO.
The mark [2] stands for this setting: Protective colloid: HPMC, 0.1 mg/mL glycosphingolipid, 0.5 mg/mL HPMC, 2.5% ethanol.
Setting [3] is: Protective colloid: Inulin, 0.1 mg/mL glycosphingolipid, 17.5 mg/mL inulin, 2.5% ethanol.
Where [4] appears, read: Protective colloid: None, glycosphingolipid dissolved in ethanol, mixed with water.
Setting [5] is: Protective colloid: Pullulan, 0.1 mg/mL glycosphingolipid, 5.0 mg/mL pullulan, 2.5% ethanol.

Each structure is given as a SMILES string.

On to `CCCCCCCCCCCCCCCCCCCCCCCCCC(=O)N[C@@H](CO[C@H]1O[C@H](CO)[C@H](O)[C@H](O)[C@H]1O)[C@H](O)[C@H](O)CCCCCCCCCCCCCC` [KRN7000, (2S,3S,4R)-1-O-(α-D-galactosyl)-N-hexacosanoyl-2-amino-1,3,4-octadecanetriol], for which the average particle size is, setting by setting: under setting [1], 345.5 nm; (protective colloid not used) “large average particle size”. The particle distribution result is, setting by setting: under setting [1], “monodispersed particles”; (protective colloid not used) “polydispersed particles”. In addition, the “Average particle size (diameter, nm)” value reads like this: under setting [2], 192 nm; under setting [3], 156 nm; under setting [4], 1536 nm; under setting [5], 149 nm. Besides, the Particle size distribution result by setting is: under setting [2], “Monodispersed”; under setting [3], “Monodispersed”; under setting [4], “Polydispersed”; under setting [5], “Monodispersed”.
As to `CCCCCCCCCCCCCCCCCCCCCCCCCC(=O)N[C@@H](CO[C@H]1CC(CO)[C@H](O)[C@H](O)C1O)[C@H](O)[C@H](O)CCCCCCCCCCCCCC` (stereo partly shown) [RCAI-56], the “Average particle size (diameter, nm)” value reads like this: under setting [2], 380 nm; under setting [3], 169 nm; under setting [4], 435 nm; under setting [5], 174 nm. The Particle size distribution entry is “Monodispersed” under setting [2], “Monodispersed” under setting [3], “Polydispersed” under setting [4] and “Monodispersed” under setting [5].
Turning to `CCCCCCCCCCCCCCCCCCCCCCCCCC(=O)N[C@@H](CO[C@H]1O[C@H](COC)[C@H](O)[C@H](O)[C@H]1O)[C@H](O)[C@H](O)CCCCCCCCCCCCCC` [RCAI-61], the “Average particle size (diameter, nm)” value worked out at 191 nm under setting [2], 298 nm under setting [3], 683 nm under setting [4] and 151 nm under setting [5]. The Particle size distribution entry is on record as “Monodispersed” under setting [2], “Monodispersed” under setting [3], “Polydispersed” under setting [4] and “Monodispersed” under setting [5].
